The test addresses purified PARP protein (Homo sapiens, UniProt P09874). Kind of test: PARP Enzyme Inhibition Assay. The following applies: [32P]NAD+ incorporation, 500 μM NAD+, 25° C.; competitive inhibition fit; read-out: Inhibition Constant Ki. It counts as biochemical. Here is the method: The PARP enzyme-inhibiting activities of test compounds were assayed as described by Simonin et al. (J. Biol. Chem. (1993), 268:8529-8535) and Marsischky et al. (J. Biol. Chem. (1995), 270:3247-3254) with minor modifications as follows. Samples (50 μL) containing 20 nM purified PARP protein, 10 μg/mL DNAse I-activated calf thymus DNA (sigma), 500 μM NAD^+, 0.5 μCi [^32P]NAD^+, 2% DMSO, and various concentrations of test compounds were incubated in sample buffer (50 mM Tris pH 8.0, 10 mM MgCl2, 1 mM tris(carboxyethyl)phosphine HCl) at 25° C. for 5 minutes. Under these conditions, the reaction rate was linear for times up to 10 minutes. The reaction was stopped by the addition of an equal volume of ice-cold 40% trichloroacetic acid to the samples, which were then incubated on ice for 15 minutes. The samples were then transferred to a Bio-Dot microfiltration apparatus (BioRad), filtered through Whatman GF/C glass-fiber filter paper, washed 3 times with 150 μL of wash buffer (5% trichloroacetic acid, 1% inorganic pyrophosphate), and dried. [^32P]ADP-Ribose incorporation into the acid-insoluble material was quantitated using a PhosphorImager (Molecular Dynamics) and ImageQuant software. Inhibition constants (Ki) were calculated by non-linear regression analyses using the velocity equation for competitive inhibition (Segel, Enzyme Kinetics: Behavior and Analysis of Rapid Equilibrium and Steady-State Enzyme Systems, John Wiley & Sons, Inc., New York (1975), 100-125). In the case of tight-binding inhibitors, 5 nM enzyme was used and the reaction was incubated at 25° C. for 25 minutes. Ki values for tight-binding inhibitors were calculated using the equation described by Sculley et al. (Biochim. Biophys. Acta (11986), 874:44-53).
purified PARP protein, sequence (P09874 whole entry): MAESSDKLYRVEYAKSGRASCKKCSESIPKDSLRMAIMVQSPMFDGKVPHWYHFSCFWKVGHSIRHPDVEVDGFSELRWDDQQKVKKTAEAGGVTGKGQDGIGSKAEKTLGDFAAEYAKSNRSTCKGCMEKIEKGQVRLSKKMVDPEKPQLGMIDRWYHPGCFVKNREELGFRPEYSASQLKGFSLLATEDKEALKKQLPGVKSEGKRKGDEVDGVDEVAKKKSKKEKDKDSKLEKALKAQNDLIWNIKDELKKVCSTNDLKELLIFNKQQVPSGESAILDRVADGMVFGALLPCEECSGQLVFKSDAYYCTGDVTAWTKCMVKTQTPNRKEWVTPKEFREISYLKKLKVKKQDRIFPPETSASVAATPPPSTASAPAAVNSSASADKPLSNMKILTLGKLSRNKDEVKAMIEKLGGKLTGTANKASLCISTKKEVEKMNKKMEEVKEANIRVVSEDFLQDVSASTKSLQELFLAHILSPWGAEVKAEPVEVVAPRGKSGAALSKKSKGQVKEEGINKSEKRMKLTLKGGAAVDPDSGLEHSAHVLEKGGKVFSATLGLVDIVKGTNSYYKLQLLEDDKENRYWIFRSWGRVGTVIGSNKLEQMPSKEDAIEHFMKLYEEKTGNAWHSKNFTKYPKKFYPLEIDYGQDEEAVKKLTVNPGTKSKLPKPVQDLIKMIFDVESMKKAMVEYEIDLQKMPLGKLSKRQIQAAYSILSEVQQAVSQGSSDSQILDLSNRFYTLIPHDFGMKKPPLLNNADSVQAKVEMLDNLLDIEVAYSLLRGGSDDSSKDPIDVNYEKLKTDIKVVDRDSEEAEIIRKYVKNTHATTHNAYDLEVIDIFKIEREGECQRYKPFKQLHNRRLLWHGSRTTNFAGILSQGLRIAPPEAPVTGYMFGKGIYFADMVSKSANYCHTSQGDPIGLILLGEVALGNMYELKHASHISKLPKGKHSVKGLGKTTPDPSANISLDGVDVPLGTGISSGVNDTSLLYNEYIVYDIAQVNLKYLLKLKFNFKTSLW
For `NC(=O)c1cccc2[nH]c(CSc3nc4ccccc4s3)nc12` [Compound 2, 2-(Benzothiazol-2-ylsulfanylmethyl)-1H-benzimidazole-4 carboxylic Acid Amide], the inhibitory constant (Ki) was determined as 0.012 µM.

On to `NC(=O)c1cccc2[nH]c(CSc3ccc([N+](=O)[O-])cc3)nc12` [Compound 3, 2-(4-Nitro-phenylsulfanylmethyl)-1H-benzimidazole-4-carboxylic Acid Amide], for which the Ki is 0.008 µM.

Consider `NC(=O)c1cccc2[nH]c(CSc3ccc(O)cc3)nc12` [Compound 4, 2-(4-Hydroxy-phenylsulfanylmethyl)-1H-benzimidazole-4-carboxylic Acid Amide], for which the Ki stood at 0.013 µM.

As to `CC(=O)Nc1nnc(SCc2nc3c(C(N)=O)cccc3[nH]2)s1` [Compound 5, 2-(5-Acetylamino-[1,3,4]thiadiazol-2-ylsulfanylmethyl)-1H-benzimidazole-4-carboxylic Acid Amide], the inhibition constant (Ki) was 0.011 ± 0.001 µM.

As to `NC(=O)c1cccc2[nH]c(CSc3nnc(-c4ccccc4)o3)nc12` [Compound 6, 2-(5-Phenyl-[1,3,4]oxadiazol-2-ylsulfanylmethyl)-1H-benzimidazole-4-carboxylic Acid Amide], the Ki stood at 0.102 µM.

On to `COc1ccc(SCc2nc3c(C(N)=O)cccc3[nH]2)cc1` [Compound 8, 2-(4-Methoxy-phenylsulfanylmethyl)-1H-benzimidazole-4-carboxylic Acid Amide], for which the inhibitory constant (Ki) worked out at 0.009 ± 0.001 µM.

As for `NC(=O)c1cccc2[nH]c(CSc3ccc(N)cc3)nc12` [Compound 10, 2-(4-Amino-phenylsulfanylmethyl)-1H-benzimidazole-4-carboxylic Acid Amide], the Ki was found to be 0.017 ± 0.001 µM.

On to `CCCCCCCSCc1nc2c(C(N)=O)cccc2[nH]1` [Compound 11, 2-Heptylsulfanylmethyl-1H-benzimidazole-4-carboxylic Acid Amide], for which the Ki worked out at 0.033 ± 0.006 µM.

On to `CN(C)c1ccc(SCc2nc3c(C(N)=O)cccc3[nH]2)cc1` [Compound 12, 2-(4-Dimethylamino-phenylsulfanylmethyl)-1H-benzimidazole-4-carboxylic Acid Amide], for which the inhibition constant (Ki) came to 0.091 ± 0.003 µM.

With `NC(=O)c1cccc2[nH]c(CSc3ccc(C(F)(F)F)cc3)nc12` [Compound 13, 2-(4-Trifluoromethyl-phenylsulfanylmethyl)-1H-benzimidazole-4-carboxylic Acid Amide], the Ki came out at 0.039 ± 0.005 µM.

With `CSc1ccc(SCc2nc3c(C(N)=O)cccc3[nH]2)cc1` [Compound 14, 2-(4-Methylsulfanyl-phenylsulfanylmethyl)-1H-benzimidazole-4-carboxylic Acid Amide], the Ki is 0.011 ± 0.002 µM.

In the case of `CN(Cc1nc2c(C(N)=O)cccc2[nH]1)Cc1ccccc1O` [Compound 15], the inhibitory constant (Ki) is 0.045 ± 0.003 µM.

With `NC(=O)c1cccc2[nH]c(CNCCCN3CCCC3)nc12` [Compound 16, 2-[(3-Pyrrolidin-1-yl-propylamino)-methyl]-1H-benzimidazole-4-carboxylic Acid Amide], the inhibitory constant (Ki) is 0.015 ± 0.003 µM.

Regarding `CN(Cc1nc2c(C(N)=O)cccc2[nH]1)c1ccccc1` [Compound 20, 2-[(Methyl-phenyl-amino)-methyl]-1H-benzimidazole-4-carboxylic Acid Amide], the inhibition constant Ki worked out at 0.014 ± 0.003 µM.

Regarding `NC(=O)c1cccc2[nH]c(CNC3CN4CCC3CC4)nc12` (stereo not shown) [Compound 21, 2-[(1-Aza-bicyclo[2.2.2]oct-3-ylamino)-methyl]-1H-benzimidazole-4-carboxylic Acid Amide], the inhibition constant (Ki) was found to be 0.009 ± 0.002 µM.

In the case of `NC(=O)c1cccc2[nH]c(CN3CCC(N)C3)nc12` (stereo not shown) [Compound 22, 2-(3-Amino-pyrrolidin-1-ylmethyl)-1H-benzimidazole-4-carboxylic Acid Amide], the inhibition constant (Ki) was found to be 0.017 µM.

For `CNCCN(C)Cc1nc2c(C(N)=O)cccc2[nH]1` [Compound 23, 2-{[Methyl-(2-methylamino-ethyl)-amino]-methyl}-1H-benzimidazole-4-carboxylic Acid Amide], the Ki came to 0.014 µM.

With `CCC(=O)Nc1ccc(SCc2nc3c(C(N)=O)cccc3[nH]2)cc1` [Compound 24, 2-(4-Propionylamino-phenylsulfanylmethyl)-1H-benzimidazole-4-carboxylic Acid Amide], the Ki came to 0.036 ± 0.002 µM.

`NC(=O)c1cccc2[nH]c(CSc3ccc(NC(=O)OCc4ccccc4)cc3)nc12` [Compound 25]: the inhibitory constant (Ki) turned out to be 0.039 µM.

Take `COC(=O)Nc1ccc(SCc2nc3c(C(N)=O)cccc3[nH]2)cc1` [Compound 26]: the inhibition constant (Ki) was found to be 0.038 ± 0.001 µM.

For the compound `CCCCCCCS(=O)(=O)Cc1nc2c(C(N)=O)cccc2[nH]1` [Compound 31, 2-(Heptane-1-sulfonylmethyl)-1H-benzimidazole-4-carboxylic Acid Amide], the inhibition constant (Ki) amounted to 0.061 ± 0.01 µM.

Turning to `CS(=O)(=O)c1ccc(S(=O)(=O)Cc2nc3c(C(N)=O)cccc3[nH]2)cc1` [Compound 35, 2-(4-Methanesulfonyl-benzenesulfonylmethyl)-1H-benzimidazole-4-carboxylic Acid Amide], the Ki is 0.005 ± 0.001 µM.

As for `CCC(=O)Nc1ccc(S(=O)(=O)Cc2nc3c(C(N)=O)cccc3[nH]2)cc1` [Compound 36, 2-(4-Propionylamino-benzenesulfonylmethyl)-1H-benzimidazole-4-carboxylic Acid Amide], the Ki is 0.0178 ± 0.0008 µM.

Take `COC(=O)Nc1ccc(S(=O)(=O)Cc2nc3c(C(N)=O)cccc3[nH]2)cc1` [Compound 37, [4-(4-Carbamoyl-1H-benzoimidazol-2-ylmethanesulfonyl)-phenyl]-carbamic Acid Methyl Ester]: the Ki amounted to 0.0285 ± 0.0005 µM.

As for `NC(=O)Nc1ccc(S(=O)(=O)Cc2nc3c(C(N)=O)cccc3[nH]2)cc1` [Compound 39, 2-(4-Ureido-benzenesulfonylmethyl)-1H-benzoimidazole-4-carboxylic Acid Amide], the inhibition constant (Ki) amounted to 0.0295 ± 0.0025 µM.

Turning to `NC(=O)c1cccc2[nH]c(SCc3ccccc3)nc12` [Compound 40, 2-Benzylsulfanyl-1H-benzimidazole-4-carboxylic Acid Amide], the Ki was 0.07 ± 0.015 µM.

As to `NC(=O)c1cccc2[nH]c(S(=O)(=O)Cc3ccccc3)nc12` [Compound 41, 2-Phenylmethansulfonyl-1H-benzimidazole-4-carboxylic Acid Amide], the inhibitory constant (Ki) worked out at 0.8 µM.

Take `COc1ccc(CSc2nc3c(C(N)=O)cccc3[nH]2)cc1` [Compound 43, 2-(4-Methoxy-benzylsulfanyl)-1H-benzimidazole-4-carboxylic Acid Amide]: the inhibitory constant (Ki) turned out to be 0.0065 ± 0.0015 µM.

Regarding `NC(=O)c1cccc2[nH]c(SCc3ccc([N+](=O)[O-])cc3)nc12` [Compound 44, 2-(4-Nitro-benzylsulfanyl)-1H-benzimidazole-4-carboxylic Acid Amide], the Ki is 0.0047 ± 0.0002 µM.

Regarding `NC(=O)c1cccc2[nH]c(CSCCN3CCOCC3)nc12` [Compound 45, 2-(2-Morpholin-4-yl-ethylsulfanylmethyl)-1H-benzimidazole-4-carboxylic Acid Amide], the inhibitory constant (Ki) was 0.048 ± 0.001 µM.

With `NC(=O)c1cccc2[nH]c(CSCCN3CCc4ccccc4C3)nc12` [Compound 46, 2-[2-(3,4-Dihydro-1H-isoquinolin-2-yl)-ethylsulfanylmethyl]-1H-benzoimidazole-4-carboxylic Acid Amide], the inhibition constant (Ki) came out at 0.033 ± 0.003 µM.

Consider `NC(=O)c1cccc2c1nc1n2CCSC1` [Compound 47, 3,4-Dihydro-1H-2-thia-4a,9-diaza-fluorene-8-carboxylic Acid Amide], for which the Ki was 0.093 ± 0.01 µM.

On to `NC(=O)c1cccc2[nH]c(CS(=O)(=O)c3ccc(N4C(=O)CNC4=O)cc3)nc12` [Compound 51, 2-[4-(2,5-Dioxo-imidazolidin-1-yl)-benzenesulfonylmethyl]-1H-benzoimidazole-4-carboxylic Acid Amide], for which the Ki came to 0.024 ± 0.003 µM.

For the compound `CSc1nc2c(C(N)=O)cccc2[nH]1` [Compound 52, 2-Methylsulfanyl-3H-benzoimidazolc-4-carboxylic Acid Amide], the Ki was determined as 0.027 ± 0.004 µM.

On to `CN(CCc1ccccc1)c1nc2c(C(N)=O)cccc2[nH]1` [Compound 54, 2-(Methyl-phenethyl-amino)-1H-benzoimidazole-4-carboxylic Acid Amide], for which the Ki came out at 0.035 ± 0.006 µM.

Regarding `CNc1nc2c(C(N)=O)cccc2[nH]1` [Compound 55, 2-Methylamino-1H-benzoimidazole-4-carboxylic Acid Amide], the Ki came out at 0.085 ± 0.008 µM.

Regarding `NC(=O)c1cccc2[nH]c(N)nc12` [Compound 56, 2-Amino-1H-benzoimidazole-4-carboxylic Acid Amide], the inhibition constant Ki was 0.319 ± 0.036 µM.

Take `CN(C)c1nc2c(C(N)=O)cccc2[nH]1` [Compound 57, 2-Dimethylamino-1H-benzoimidazole-4-carboxylic Acid Amide]: the Ki stood at 0.044 ± 0.004 µM.

`NC(=O)c1cccc2[nH]c(NCc3ccccc3)nc12` [Compound 58, 2-Benzylamino-1H-benzoimidazole-4-carboxylic Acid Amide]: the Ki was 0.066 ± 0.008 µM.

As for `CCN(CC)CCNc1nc2c(C(N)=O)cccc2[nH]1` [Compound 59, 2-(2-Diethylamino-ethylamino)-1H-benzoimidazole-4-carboxylic Acid Amide], the inhibition constant Ki is 0.023 ± 0.004 µM.

By Ki is commonly meant a dissociation constant, usually derived from enzyme kinetics or from competition with a known ligand.

(Values after patent US20040034078A1 (Agouron Pharmaceuticals, Inc., priority 2002, published 2004).)
